# Reference: patent US5204352A, “Compounds exhibiting anti-parasitic activity and a method for their use” (The United States of America as represented by the …, priority 1987, dated 1993)
# Test system: Trypanosoma rhodesiense
# Test: In vivo trypanocidal activity in infected mice (protocol based on Rane et al.)
# Parameters: Activity at dosage, value in parentheses (increase in survival): unit not given here
# Settings: for Activity at dosage (C = Cures) / Activity at dosage, value in parentheses (increase in survival): peritoneal (Table 2)
# Method: The compounds of the present invention were evaluated biologically in vivo with groups of 5 mice at various dose levels. Unless otherwise indicated, the data are for subcutaneous administration. Dose levels marked with an asterisk are for peritoneal administration in a HEC+T medium. In addition, Table 2 present results of peritoneal administration with substituted quanylhydrazones. The biological evaluation was done according to a standard protocol based on the method described by Rane et al., Amer. J. Trop. Med Hyg. 25:395 (1976). […]
# [1] = 13.3* mg/kg, peritoneal in HEC+T medium (Table I)
# [2] = 26* mg/kg, peritoneal in HEC+T medium (Table I)
# [3] = 106* mg/kg, peritoneal in HEC+T medium (Table I)
# [4] = 424* mg/kg, peritoneal in HEC+T medium (Table I)
structure (smiles),measurement,setting,value
C[n+]1c(-c2ccc(C=NNC3=NCCN3)cc2)cn2ccccc21 [BK50311],Increase in survival,"0.42 mg/kg, subcutaneous",6.6 days
same,"Trypanocidal activity, cures","0.42 mg/kg, subcutaneous",2/5
same,Activity at dosage (C = Cures),0.8 mg/kg,INAC
same,Increase in survival,"0.83 mg/kg, subcutaneous",1.5 days
same,"Trypanocidal activity, cures","0.83 mg/kg, subcutaneous",8/10
same,Increase in survival,"1.66 mg/kg, subcutaneous",22.0 days
same,"Trypanocidal activity, cures","1.66 mg/kg, subcutaneous",9/10
same,"Activity at dosage, value in parentheses (increase in survival)",1.7 mg/kg,1.0
same,"Activity at dosage, value in parentheses (increase in survival)",3.3 mg/kg,1.6
same,"Trypanocidal activity, cures","3.3 mg/kg, subcutaneous",5/5
same,Increase in survival,"6.6 mg/kg, subcutaneous",10.0 days
same,"Trypanocidal activity, cures","6.6 mg/kg, subcutaneous",3/5
same,"Activity at dosage, value in parentheses (increase in survival)",6.7 mg/kg,7.7
same,"Activity at dosage, value in parentheses (increase in survival)",13 mg/kg,9.0
same,"Trypanocidal activity, cures","13.3 mg/kg, subcutaneous",10/10
same,"Activity at dosage, value in parentheses (increase in survival)",26 mg/kg,13.5
same,Increase in survival,[1],9.0 days
same,"Trypanocidal activity, cures",[1],9/10
same,Increase in survival,[2],13.5 days
same,"Trypanocidal activity, cures",[2],13/15
same,"Trypanocidal activity, cures","53* mg/kg, peritoneal in HEC+T medium (Table I)",5/5
same,"Trypanocidal activity, cures",[3],10/10
same,"Trypanocidal activity, cures","212* mg/kg, peritoneal in HEC+T medium (Table I)",5/5
same,"Trypanocidal activity, cures",[4],0/10
C[n+]1c(-c2ccc(C=NNC(=N)N3CCOCC3)cc2)cn2ccccc21 [BK51890],"Activity at dosage, value in parentheses (increase in survival)",0.8 mg/kg,1.7
same,"Activity at dosage, value in parentheses (increase in survival)",1.7 mg/kg,10.9
same,"Activity at dosage, value in parentheses (increase in survival)",26 mg/kg,5.9
same,Increase in survival,"1.66* mg/kg, peritoneal in HEC+T medium (Table I)",10.9 days
same,"Trypanocidal activity, cures","3.3* mg/kg, peritoneal in HEC+T medium (Table I)",5/5
same,"Trypanocidal activity, cures","6.6* mg/kg, peritoneal in HEC+T medium (Table I)",5/5
same,"Trypanocidal activity, cures","13* mg/kg, peritoneal in HEC+T medium (Table I)",5/5
same,"Trypanocidal activity, cures",[2],9/10
same,"Trypanocidal activity, cures",[3],5/5
same,"Trypanocidal activity, cures",[4],5/5
C[n+]1c(-c2ccc(C=NNC(=N)N)cc2)c(Br)n2ccccc21 [BK51907],Activity at dosage (C = Cures),0.8 mg/kg,INAC
same,Activity at dosage (C = Cures),1.7 mg/kg,INAC
same,"Activity at dosage, value in parentheses (increase in survival)",3.3 mg/kg,1.2
same,"Activity at dosage, value in parentheses (increase in survival)",6.7 mg/kg,3.8
same,"Activity at dosage, value in parentheses (increase in survival)",13 mg/kg,7.0
same,"Activity at dosage, value in parentheses (increase in survival)",26 mg/kg,10.0
same,"Activity at dosage, value in parentheses (increase in survival)",424 mg/kg,2.0
Cc1ccc2n(c1)cc(-c1ccc(C=NNc3nc[nH]n3)cc1)[n+]2C [BK51961],Activity at dosage (C = Cures),13 mg/kg,INAC
same,Activity at dosage (C = Cures),26 mg/kg,INAC
same,Activity at dosage (C = Cures),53 mg/kg,INAC
same,"Activity at dosage, value in parentheses (increase in survival)",106 mg/kg,5.5
same,"Activity at dosage, value in parentheses (increase in survival)",212 mg/kg,6.3
same,"Activity at dosage, value in parentheses (increase in survival)",424 mg/kg,6.0
C[n+]1c(-c2ccc(C=NNC3=NCCN3)cc2)cn2ccsc21 [BK62620],Increase in survival,"13.3 mg/kg, subcutaneous",28.0 days
same,"Trypanocidal activity, cures","13.3 mg/kg, subcutaneous",9/10
C[n+]1c(COc2ccc(C(=N)N)cc2)cn2ccccc21 [BK65330],Increase in survival,"13.3 mg/kg, subcutaneous",12 days
same,"Trypanocidal activity, cures","13.3 mg/kg, subcutaneous",3/5
C[n+]1c(COc2ccc(C=NNC(=N)NO)cc2)cn2ccccc21 [BK75087],Increase in survival,"0.2 mg/kg, subcutaneous",5.9 days
same,"Trypanocidal activity, cures","0.2 mg/kg, subcutaneous",2/5
same,Increase in survival,"0.4 mg/kg, subcutaneous",10 days
same,"Trypanocidal activity, cures","0.4 mg/kg, subcutaneous",3/5
same,"Trypanocidal activity, cures","0.8 mg/kg, subcutaneous",10/10
same,"Trypanocidal activity, cures","6.6 mg/kg, subcutaneous",5/5
CCN=C(NCC)NN=Cc1ccc(OCc2cn3ccccc3[n+]2C)cc1 [BL03933],Increase in survival,"1.6 mg/kg, subcutaneous",6.3 days
same,"Trypanocidal activity, cures","1.6 mg/kg, subcutaneous",7/10
same,"Trypanocidal activity, cures","3.3 mg/kg, subcutaneous",5/5
same,"Trypanocidal activity, cures","6.6 mg/kg, subcutaneous",5/5
C[n+]1ccccc1COc1ccc(C=NNC2=NCCCN2)cc1 [BL07646],Increase in survival,"1.6 mg/kg, subcutaneous",3.9 days
same,"Trypanocidal activity, cures","1.6 mg/kg, subcutaneous",1/10
same,Increase in survival,"6.6 mg/kg, subcutaneous",9.9 days
same,"Trypanocidal activity, cures","6.6 mg/kg, subcutaneous",3/5
same,Increase in survival,"13 mg/kg, subcutaneous",4.0 days
same,"Trypanocidal activity, cures","13 mg/kg, subcutaneous",9/10
C[n+]1c(-c2ccc(C=CC=NNC(=N)N)cc2)cn2ccccc21 [BL07815],"Trypanocidal activity, cures","1.6 mg/kg, subcutaneous",0/10
same,"Trypanocidal activity, cures","3.3 mg/kg, subcutaneous",5/5
same,"Trypanocidal activity, cures","6.6 mg/kg, subcutaneous",5/5
same,"Trypanocidal activity, cures","13 mg/kg, subcutaneous",10/10
same,"Trypanocidal activity, cures","26 mg/kg, subcutaneous",15/15
same,"Trypanocidal activity, cures","53 mg/kg, subcutaneous",5/5
same,"Trypanocidal activity, cures","106 mg/kg, subcutaneous",10/10
C[n+]1c(-c2ccc(C=CC=NNC3=NCCCN3)cc2)cn2ccccc21 [BL07824],"Trypanocidal activity, cures","3.3 mg/kg, subcutaneous",5/5
same,"Trypanocidal activity, cures","6.6 mg/kg, subcutaneous",5/5
same,"Trypanocidal activity, cures","13 mg/kg, subcutaneous",5/5
C[n+]1c(C=Cc2ccc(C=NNC(=N)N)cc2)cn2ccccc21 [BL09462],Increase in survival,"0.1 mg/kg, subcutaneous",5.2 days
same,"Trypanocidal activity, cures","0.1 mg/kg, subcutaneous",6/10
same,"Trypanocidal activity, cures","0.2 mg/kg, subcutaneous",5/5
same,"Trypanocidal activity, cures","0.8 mg/kg, subcutaneous",10/10
Cn1c(COc2ccc(C=NNC3=NCCN3)cc2)[n+](C)c2ccccc21 [BL10018],Increase in survival,"0.4 mg/kg, subcutaneous",6.8 days
same,"Trypanocidal activity, cures","0.4 mg/kg, subcutaneous",3/5
same,"Trypanocidal activity, cures","1.6 mg/kg, subcutaneous",10/10
same,"Trypanocidal activity, cures","6.6 mg/kg, subcutaneous",5/5
C[n+]1cccc(COc2ccc(C=NNC(=N)N3CCCC3)cc2)c1 [BL10027],Increase in survival,"0.8 mg/kg, subcutaneous",5.2 days
same,"Trypanocidal activity, cures","0.8 mg/kg, subcutaneous",7/10
same,"Trypanocidal activity, cures","3.3 mg/kg, subcutaneous",5/5
same,"Trypanocidal activity, cures","13 mg/kg, subcutaneous",5/5
C[n+]1c(C=Cc2ccc(C=NNC3=NCCCN3)cc2)cn2ccccc21 [BL11202],"Trypanocidal activity, cures","0.4 mg/kg, subcutaneous",5/5
same,Increase in survival,"1.6 mg/kg, subcutaneous",6.8 days
same,"Trypanocidal activity, cures","1.6 mg/kg, subcutaneous",9/10
same,"Trypanocidal activity, cures","6.6 mg/kg, subcutaneous",5/5
same,"Trypanocidal activity, cures","26 mg/kg, subcutaneous",15/15
C[n+]1ccc(COc2ccc(C=NNC3=NCCN3)cc2)cc1 [BL12129],Increase in survival,"3.3 mg/kg, subcutaneous",6.8 days
same,"Trypanocidal activity, cures","3.3 mg/kg, subcutaneous",1/5
same,Increase in survival,"13 mg/kg, subcutaneous",5.0 days
same,"Trypanocidal activity, cures","13 mg/kg, subcutaneous",8/10
